Data from patent US6417220B2, “Mitochondrial membrane stabilizer” (Daiichi Pharmaceutical Co., Ltd., priority 1996, dated 2002).

How the values were obtained:
[1] = system: NG108-15 cells; assay: Determination of the intracellular Ca2+ concentration (fura2-AM fluorescence ratio); format: cell-based
Text: The present invention will be explained more specifically by referring to the following examples. However, the scope of the present invention is not limited to these examples. The test procedure in the examples was according to the method of Hare et al. (Hare, M. F., et. al., JPET, 266, pp.1626-1635, 1993) unless otherwise indicated. In the examples, “Nefiracetam” means 2-oxo-1-pyrrolidinylacetic acid 2,6-dimethylanilide, and “Ro5-4864” means the mitochondrias benzodiazepine receptor agonist, (7-chloro-5-(4-chlorophenyl)-1,3-dihydro-1-methyl-2H-1,4-benzodiazepin-2-one: TIPS, December, pp. 506-511, 1986).
Changes in the intracellular Ca^2+ concentration caused by Ro5-4864 was studied. Cultured cells (NG108-15 cells: nerve cell x neuroglia cell hybrid) were cultured in DMEM culture medium, and further cultured in Flexiperm Disc (Heraeus Biotechnology) provided with a cover glass and used in the following described below. The cultured NG 108-15 cells were added with Ro5-4864 at final concentration of […]. A fluorescent remedicament, fura2-AM (1-(6-amino-2-(5-carboxy-2-oxazoly-5-benzofuranyloxy)-2-(2-amino-5-methylphenoxy)-ethane-N,N,N′,N′-teraacetic acid, pentaacetoxymethyl ester, Dojindo Laboratories) was dissolved in DMSO (Dimethylsulfoxide, Nakarai Chemical) to prepare a 1 mM solution, and this solution was diluted 200 times with HBS (Herpes-saline solution, composition: NaCl; 130 mM; KCl: 5.4 mM; CaCl2: 1.8 mM; MgSO4: 0.8 mM; D-glucose: 20 mM; Na^+-HEPES; 20 mM, pH 7.3) to prepare a fluorescent reagent solution (final concentration of fra2-AM: 5 μM).
For the determination of intracellular Ca^2+ concentrations, the culture medium was removed from the Petri dish where the NG108-15 cells were cultured, and the dish was washed twice with HBS. The cultured cells were added with the 5 μM fura2-AM solution prepared above, put in a carbon dioxide gas incubator for 30 minutes, and then washed with HBS five times to remove the added fura2-AM solution. Finally, 1 ml of HBS was added to the Flexiperm, and the intracellular Ca^2+ concentration was measured by ARGUS-50/CA (Hamamatsu Photonics). According to this measurement, the fluorescence of Ca^2+-bound type fura-2 emitted at an excitation wavelength of 340 nm and the fluorescence of Ca^2+-free type fura-2 emitted at an excitation wavelength of 380 nm were measured as a pair at a constant interval for the fura-2 loaded cultured cells, and their relative ratio (ratio of fluorescence intensity) was used to analyze the intracellular Ca^2+ dynamics (concentration). An increase in the 340 nm excited fluorescence due to the binding of intracellular calcium ions to the fura2-AM, and a decrease in the 380 nm excited fluorescence were recorded by imaging and the ratio of fluorescence intensity between the fluorescence images was obtained.

[2] = system: NG108-15 cells; assay: Determination of the mitochondrial membrane potential (Rhodamine 123 fluorescence); format: cell-based
[3] = male mouse, p.o.; cited from earlier work

CN(C(=O)Cn1c(=O)n2c(Br)c(-c3cccc(Cl)c3)nc2c2ccccc21)c1ccccc1 [NCS-1044-90, 2-(3-Chlorophenyl)-3-bromo-6-(N-methyl-N-phenylacetamido)-5-oxo-5,6-dihydroimidazo[1,2-c]quinazoline]
change in intracellular Ca2+ concentration on addition of Ro5-4864 ([1]; Ro5-4864 100 μM applied to cells treated beforehand with NCS-1044-90 10 μM, FIG. 9): only a very small elevation | change in intracellular mitochondrial membrane potential ([2]; NCS-1044-90 10 μM alone, FIG. 10): No change | change in intracellular mitochondrial membrane potential on addition of Ro5-4864 ([2]; Ro5-4864 50 μM added to cells treated with NCS-1044-90 10 μM, FIG. 10): only a very small elevation | change in intracellular mitochondrial membrane potential on further addition of Ro5-4864 ([2]; further treatment with Ro5-4864 100 μM, cells treated with NCS-1044-90 10 μM, FIG. 10): slight and gentle elevation

Cc1cccc(C)c1NC(=O)CN1CCCC1=O [Nefiracetam, 2-oxo-1-pyrrolidinylacetic acid 2,6-dimethylanilide]
change in intracellular Ca2+ concentration ([1]; Nefiracetam 50 μM alone, after washing, FIG. 5): no change | change in intracellular Ca2+ concentration on addition of Ro5-4864 ([1]; Ro5-4864 25 μM in the presence of Nefiracetam 50 μM, FIG. 5): almost no change | acute toxicity [3]: 2,005 mg/kg | change in mitochondrial membrane potential ([2]; Nefiracetam 50 μM alone, FIG. 6): no change | change in mitochondrial membrane potential on addition of Ro5-4864 ([2]; Ro5-4864 25 μM in the presence of Nefiracetam 50 μM, FIG. 6): almost no change | depolarizing effect of Ro5-4864 on mitochondrial membranes ([2]; Ro5-4864 50 μM in the presence of Nefiracetam, FIG. 6): weak

CN1C(=O)CN=C(c2ccc(Cl)cc2)c2cc(Cl)ccc21 [Ro5-4864, 7-chloro-5-(4-chlorophenyl)-1,3-dihydro-1-methyl-2H-1,4-benzodiazepin-2-one]
change in intracellular Ca2+ concentration ([1]; Ro5-4864 25 μM alone, FIG. 5, first peak): elevation | change in intracellular Ca2+ concentration ([1]; Ro5-4864 50 μM alone, FIG. 7, first peak): elevation | change in intracellular Ca2+ concentration ([1]; Ro5-4864 50 μM applied after bradykinin and caffeine treatment (endoplasmic reticulum Ca2+ depleted), FIG. 3): markedly elevated | change in intracellular Ca2+ concentration ([1]; Ro5-4864 alone, FIG. 1): sharply increases | change in mitochondrial membrane potential ([2]; Ro5-4864 50 μM alone, FIG. 2): remarkably decreased | change in mitochondrial membrane potential ([2]; Ro5-4864 50 μM applied after caffeine and bradykinin, FIG. 4): remarkable decrease

Cn1c(=O)c2c(ncn2C)n(C)c1=O [caffeine, reference compound]
change in mitochondrial membrane potential ([2]; caffeine 10 μM and bradykinin 1 μM applied, FIG. 4): no alteration
